≈ marks a conversion by molar mass, not a printed value.
Legend:
[1] = Acute oral gavage toxicity; format: in vivo
mice [2] = test: Subacute toxicity, 14-day daily intragastric administration; format: in vivo
Experimental: Animal studies in male and female mice of the CDI strain, and male rats of the Wistar strain were used.
During the quarantine period (15 days) they were kept in a chamber with conditions of (22+2° C., 55+5% humidity and a light/dark cycle of 12:12 h), with food and water ad libitum. Prior to the start of the experiment, the animals (mice and rats) were deprived of food for 4 h, and recovered 2 h after the administration of the drug.
The test animals were randomly divided into experimental groups corresponding to different doses of the drug, as shown in Table 2.

[3] = pH 7.2; cited from earlier work
mice [4] = test: Evaluation toxicity, 90-day daily intragastric administration in mice; format: in vivo; conditions: for Percentage of dead mice (%): purity min 95%
in vivo = conditions: 10 mg, t1/2 (h)
rat = conditions: cited from earlier work
mice [5] = test: Evaluation toxicity, 90-day daily intragastric administration in mice; format: in vivo; conditions: for Percentage of dead mice (%): purity min 95%; remark: listed apart in the source
Experimental: To investigate the toxicity of tyrphostin AG17 the following doses were tested in mice, the animals were randomly divided into experimental groups corresponding to different doses of tyrphostin. Tyrphostin was administered intragastric via daily for 90 days, after 90 days, the mice were weighed and sacrificed by cervical dislocation.
In a second evaluation for the treatments with 5.50 mg/kg to 55.50 mg/kg of tyrphostin, using a lot tyrphostin AG17 with a minimum purity of 98% is used; the percentage of dead mice is reduced to 0% and in the case of the treatment with 100.00 mg/kg, the deaths are reduced to 10%.

CC(C)(C)c1cc(C=C(C#N)C#N)cc(C(C)(C)C)c1O [tyrphostin AG17, Tyrphostin AG17]
LD50 ([1]; C57BL/6, mouse, in vivo): 33.3 mg/kg | Behavioral alterations ([1]; doses 1.75, 5.5 and 17.5 mg/kg): inhibition in locomotion and piloerection | Lethal effect ([1]; doses of 1.75, 5.5 and 17.5 mg/kg): no lethal effect observed | Mortality ([1]; doses of 28, 40 and 55.5 mg/kg): increase in mortality | Death, share of the population (mice [2]; 100.00 mg/kg): 40% | Time until recovery from lethargy (mice [2]; 5.50 to 55.50 mg/kg): 12 h | Signs of subacute toxicity presented (mice [2]; AT1: 0.175 mg/Kg daily 14 days): No apparent signs | Signs of subacute toxicity presented (mice [2]; AT2: 0.55 mg/Kg daily 14 days): No apparent signs | Signs of subacute toxicity presented (mice [2]; AT3: 1.75 mg/Kg daily 14 days): No apparent signs | Signs of subacute toxicity presented (mice [2]; AT4: 5.50 mg/Kg daily 14 days): Lethargy (10%) | Lethargy, share of the population (mice [2]; AT4 group, 5.50 mg/kg): 10% | Signs of subacute toxicity presented (mice [2]; AT5: 55.50 mg/Kg daily 14 days): Lethargy (20%) | Lethargy, share of the population (mice [2]; AT5 group, 55.50 mg/kg): 20% | Signs of subacute toxicity presented (mice [2]; AT6: 100.00 mg/Kg daily 14 days): Death (40%) | Solubility [3]: ~150 µg/mL (≈ 531 µM) | Percentage of dead mice, second evaluation (mice [4]; 5.50 mg/kg to 55.50 mg/kg, lot with minimum purity of 98%): 0% | Percentage of dead mice (deaths), second evaluation (mice [4]; 100.00 mg/kg, lot with minimum purity of 98%): 10% | Percentage of dead mice (%) (mice [4]; T2: 0.000175 mg/Kg daily 90 days): 0% | Percentage of dead mice (%) (mice [4]; T4: 0.0175 mg/Kg daily 90 days): 0% | Percentage of dead mice (%) (mice [4]; T6: 0.18 mg/Kg daily 90 days): 0% | Percentage of dead mice (%) (mice [4]; T10: 5.50 mg/Kg daily 90 days): 10% | Percentage of dead mice (%) (mice [4]; T11: 17.50 mg/Kg daily 90 days): 10% | Percentage of dead mice (%) (mice [4]; T12: 25.00 mg/Kg daily 90 days): 0% | Percentage of dead mice (%) (mice [4]; T12: 25.00 mg/Kg daily 90 days, listed as tyrphostin): did not show any dead mice | Percentage of dead mice (%) (mice [4]; T13: 28.00 mg/Kg daily 90 days): 10% | Percentage of dead mice (%) (mice [4]; T14: 40.00 mg/Kg daily 90 days): 10% | Percentage of dead mice (%) (mice [4]; T15: 50.00 mg/Kg daily 90 days): 20% | Percentage of dead mice (%) (mice [4]; T16: 55.50 mg/Kg daily 90 days): 20% | Percentage of dead mice (%) (mice [4]; T17: 100.00 mg/Kg daily 90 days): 40% | half-life (in vivo; Geometric Mean): 80.6 h | half-life (in vivo; Mean): 82.2 h | half-life (in vivo; Median): 75.2 h | oral LD50 (rat): 87 mg/kg | Percentage of dead mice (%) (mice [5]; T1: 0.0001 mg/Kg daily 90 days): 0% | Percentage of dead mice (%) (mice [5]; T3: 0.001 mg/Kg daily 90 days): 0% | Percentage of dead mice (%) (mice [5]; T5: 0.175 mg/Kg daily 90 days): 0% | Percentage of dead mice (%) (mice [5]; T7: 0.76 mg/Kg daily 90 days): 0% | Percentage of dead mice (%) (mice [5]; T8: 1.70 mg/Kg daily 90 days): 0% | Percentage of dead mice (%) (mice [5]; T9: 1.75 mg/Kg daily 90 days): 0% | Signs of toxicity during 90-day treatment (mice [5]; doses below 1.75 mg/kg): no apparent signs of toxicity

Reference: US20240374552A1, “Compositions and Methods for Preventing or Reducing the Risk of Metabolic Syndrome” (priority 2021, published 2024)
